# PMC2572143, “Androgen Receptor Functional Analyses by High Throughput Imaging: Determination of Ligand, Cell Cycle, and Mutation-Specific Effects” (PLoS ONE, 2008)
# Residue numbers refer to the chain shown, from its start. Read-outs that look alike come from different tables or passages of the source.
# Columns and labels:
# [1] = biological target: T1, GFP-AR (wild type androgen receptor) (Homo sapiens, UniProt P10275); assay: HT imaging: AR nuclear hyperspeckling (NVAR) in stable HeLa GFP-AR cells
# T1 sequence (P10275 1-920): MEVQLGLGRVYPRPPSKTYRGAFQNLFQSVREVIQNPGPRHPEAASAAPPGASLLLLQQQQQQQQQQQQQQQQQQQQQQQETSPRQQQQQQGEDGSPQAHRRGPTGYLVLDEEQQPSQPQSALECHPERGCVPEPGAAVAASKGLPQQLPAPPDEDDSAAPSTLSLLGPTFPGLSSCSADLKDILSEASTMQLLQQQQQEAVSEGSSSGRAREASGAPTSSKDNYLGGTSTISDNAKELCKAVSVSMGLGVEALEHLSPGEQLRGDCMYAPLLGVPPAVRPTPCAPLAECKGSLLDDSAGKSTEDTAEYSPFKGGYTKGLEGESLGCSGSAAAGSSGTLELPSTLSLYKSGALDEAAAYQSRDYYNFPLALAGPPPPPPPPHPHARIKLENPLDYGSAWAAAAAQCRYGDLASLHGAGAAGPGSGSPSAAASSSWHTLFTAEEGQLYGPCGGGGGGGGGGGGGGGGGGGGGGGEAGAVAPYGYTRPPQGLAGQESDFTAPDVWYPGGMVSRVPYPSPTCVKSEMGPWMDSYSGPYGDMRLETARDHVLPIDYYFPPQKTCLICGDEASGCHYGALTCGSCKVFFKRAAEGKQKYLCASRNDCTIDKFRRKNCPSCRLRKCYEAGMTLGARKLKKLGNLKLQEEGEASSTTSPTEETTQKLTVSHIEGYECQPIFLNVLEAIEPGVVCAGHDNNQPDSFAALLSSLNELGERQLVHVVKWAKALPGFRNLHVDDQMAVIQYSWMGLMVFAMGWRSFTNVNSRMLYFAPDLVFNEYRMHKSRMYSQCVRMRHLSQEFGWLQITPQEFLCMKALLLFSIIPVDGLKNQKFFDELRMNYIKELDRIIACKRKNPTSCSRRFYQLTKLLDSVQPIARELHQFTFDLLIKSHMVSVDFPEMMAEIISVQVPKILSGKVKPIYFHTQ
# Description: (§1) In general, 49 images were captured per well for image analysis.
# [2] = biological target: T1, GFP-AR (wild type androgen receptor); assay: HT imaging: AR nuclear translocation (FLIN) in stable HeLa GFP-AR cells
# Description: as §1
# [3] = biological target: T1, GFP-AR (wild type androgen receptor); assay: HT imaging: pARR2PB-dsRED2skl transcriptional reporter gene activity (CORR2) in stable HeLa GFP-AR cells; assay type: cell-based; set-up: expressed in transfected cells
# Description: Cells were imaged in PBS.
# [4] = biological target: T2, GFP-AR T877A (LNCaP mutation) (Homo sapiens, UniProt P10275, T878A); assay: HT imaging multiplex assay, all measurements together, HeLa GFP-AR T877A; assay type: cell-based
# T2 construct: expressed in transfected cells
# T2 sequence (P10275 1-920 T878A): T1 sequence (P10275 1-920) with T878A
# [5] = biological target: T3, GFP-AR F764L (AIS mutation) (Homo sapiens, UniProt P10275, F765L); assay: HT imaging multiplex assay, all three parameters together, HeLa GFP-AR F764L; assay type: cell-based; conditions: read-out: maximal responses (three parameters), % of that observed with WT AR
# T3 construct: expressed in transfected cells
# T3 sequence (P10275 1-920 F765L): T1 sequence (P10275 1-920) with F765L
# HeLa GFP-AR cells = assay: Cell cycle analysis by DNA content (DAPI)/EdU incorporation in unsynchronized cells; assay type: cell-based, human; conditions: for EC50: Homo sapiens, HeLa, 18 h
# Description: To perform these studies, we simplified the HCS cell cycle analysis techniques described by Gesparri et al. to a DNA content (DAPI)/EdU incorporation biparametric analysis to identify G1, S phase, and G2 cells in unsynchronized growing cells (Fig. 6A). Cells were prepared as normal except with a brief 30 minute exposure to 10 µM EdU, which will incorporate into newly synthesized DNA similar to BrdU, prior to fixation. During image analysis, total nuclear DAPI signal (DNA) and mean nuclear EdU signal from each cell was quantified and used to determine cell cycle.
# For experiments in which cell cycle effects were determined, cells were labeled using an Invitrogen Click-iT cell cycle analysis kit using supplied protocols. Prior to fixation, cells were exposed to 10 µM EdU for 30 minutes. Cells with EdU incorporation were labeled by an EdU specific antibody conjugated to an A647 florescent marker. Because the Click-iT labeling decreases GFP signal intensity, AR was labeled using an Anti-AR antibody (Dr. Nancy Weigel) and A488 secondary antibody (Molecular Probes).
# [6] = biological target: T1, GFP-AR (wild type androgen receptor); assay: HT imaging multiplex assay, all three parameters together (FLIN, NVAR, CORR2), HeLa GFP-AR
# Description: as §1
compound,measurement,setting,value
CC(C)=CC(=O)O[C@H]1Cc2cc3ccc(=O)oc3cc2OC1(C)C [Decursin],IC50,[1],12.3 ± 0.43 µM
same,reduction/loss of agonist-induced hyperspeckling (NVAR),[1]; with 10 nM R1881,94%
same,EC50,[2],0.853 ± 0.0884 µM
same,IC50,[2],13.2 ± 0.152 µM
same,decrease in R1881-induced nuclear translocation,[2]; with 10 nM R1881,95%
same,IC50,[3],10.6 ± 0.865 µM
same,decrease in transcriptional reporter gene activity (dsRED2skl reporter signal),[3]; with 10 nM R1881,45%
"C[C@@H]1CC2=CC(=O)CC[C@@H]2[C@H]2CC[C@@]3(C)[C@@H](CC[C@]3(C)O)[C@@H]21 [Mibolerone, mibolerone]",difference of results from those observed with WT-AR,[4]; compound alone,≤ 1%
same,Emax,[5],85 to 105%
"CC(C)(O)C(=O)Nc1ccc([N+](=O)[O-])c(C(F)(F)F)c1 [OHF, o-hydroxyflutamide]",induction of nuclear hyperspeckling (in words),[1]; compound alone,no significant hyperspeckling
same,induction of transcriptional reporter gene activity (in words),[3]; compound alone,no significant hyperspeckling or induction of transcription
same,concentration at which agonist effect / activation of the T877A mutant is observed,[4]; compound alone,75 to 85 nM
same,effect on the cell cycle (in words),HeLa GFP-AR cells; 18 hr treatment,did not have any appreciable effect on the cell cycle
CC(C)(C)CC(C)(C)c1ccc(O)cc1 [Octophenol],response on any of the three parameters measured (in words),[6]; compound alone,did not yield a significant response
same,response on any of the three parameters / AR antagonistic activity (in words),[6]; with 10 nM R1881 (competition),did not yield a significant response
"C[C@]1(O)CC[C@H]2[C@@H]3CCC4=CC(=O)CCC4=C3C=C[C@@]21C [R1881, Methyltrienolone]",cells with a majority of the GFP signal in the nucleus,[2],95–97%
same,more AR in the nucleus in G2 cells compared to G1 cells,[2],8–12%
same,time AR distribution remained nuclear after ligand pulse,[2],up to 15 hr
same,difference of results from those observed with WT-AR,[4],≤ 1%
same,S % (I + II),"HeLa GFP-AR cells; 100 nM, untreated control 42.6",0.7%
same,EC50,HeLa GFP-AR cells; read-out: EC50 of G1/S block,0.1 ± 0.03 nM
same,EC50,HeLa GFP-AR cells; read-out: EC50 of reduction in S-phase cells,0.07 ± 0.02 nM
same,concentration at which saturation of response is observed,"[6]; FLIN, NVAR, CORR2, titration 10−6 M to 10−11 M",≈ 100 nM
same,Emax,[5],40 to 60%
